Reference: patent publication US12667584B2, “Adenosine analog and its use in regulating the circadian clock” (NATIONAL INSTITUTE OF BIOLOGICAL SCIENCES, BEIJING, priority 2017, dated 2026)

Tests used:
Ruvbl2 = Ruvbl2 (Homo sapiens, UniProt Q9Y230); assay: SPR binding to RUVBL2 protein (Biacore T200); details: purified RUVBL2
Method: Biotinylated Compounds Pull-down, SPR analysis and Immunoprecipitation: The interaction between biotinylated compounds and their target proteins were proceeded as follow. Every 10^8 unsynchronized U2OS cells were collected, homogenized into 2 ml lysis buffer (25 mM MOPS pH7.2, 15 mM EGTA, 15 mM MgCl2, 1 mM DTT, 60 mM β-glycerophosphate, 1 mM Na3VO4, 1 mM NaF, 1 mM phenyl phosphate, Complete Protease Inhibitor Cocktail), and sonicated 6 times for 30 s at 4° C. with a Diagenode bioruptor. After sonication, NP-40 (final 0.5%) was added, incubated 15 min on ice, centrifuged at full speed for 20 min at 4° C. The resultant supernatant was firstly incubated with Pentostatin (final concentration at 5 μg/ml) for 2 h at 4° C. with rotation, and then split into 4 groups. 200 pmol cordycepin, 200 pmol DRB, and DMSO (2 groups, final 0.1%) was added respectively and further incubated for 1 h. […] The eluted protein was analyzed with western blot. The binding affinity of cordycepin against the RUVBL2 protein was measured via SPR technology using a Biacore T200 instrument (GE Healthcare) at room temperature. […] The binding kinetics and binding affinity of cordycepin against the RUVBL2 protein were determined with BIA evaluation software (GE healthcare). […] Immunoprecipitated protein complex was then washed 3 times with IP lysis buffer, boiled and analyzed with western blot. […]

liver culture slice = assay: Ex vivo liver slice culture from Per2::LUC mice, lumicycle; assay type: cell-based, mouse; details: 100 μM at Per2::LUC peak
From the text: Tissue culture, drug treatment and Real-Time Monitoring of Circadian Oscillations: 8 week-old male mPer2 Luciferase knockin mice were Sacrificed cervical dislocation. Then wipe the skin and neck with cotton containing 70% ethanol in a sterile hood. For SCN slice culture, firstly remove the eye balls from the head with scissors, decapitate and cut the skin. Then open the skull, remove all bone until the olfactory bulbs can be seen, cut the optic nerve between the olfactory bulbs and the hemispheres, and finally harvest the whole brain into ice cold HBSS. Trim the brain in HBSS by removing the cerebellum and olfactory bulbs. Attach the brain to a sample tray by glue with the rostral tip upwards and ventral surface closest to the cutting blade, then immediately fill the tray with ice cold HBSS and set the tray to the vibratome. Set the vibratome frequency at the maximum and the speed to the medium. To reach the SCN area quickly, the start cutting off thicker sections should be 500-800 μm. Reduce the sections thicker to 100 μm when the optic chiasm becomes wider. When the two SCN nuclei start to appear, collect the slice with transfer pipettes and check slices under dissecting microscope. […] Data was extract and analyzed with LumiCycle Analysis software. […]

[1] = tested on: Per2-Luc reporter U2OS cells (D15); assay: Circadian phase shift cell assay in D15 cells, 384 well plate, Tecan, with or without pentostatin; assay type: cell-based, human

Ruvbl2, sequence (Q9Y230 whole entry): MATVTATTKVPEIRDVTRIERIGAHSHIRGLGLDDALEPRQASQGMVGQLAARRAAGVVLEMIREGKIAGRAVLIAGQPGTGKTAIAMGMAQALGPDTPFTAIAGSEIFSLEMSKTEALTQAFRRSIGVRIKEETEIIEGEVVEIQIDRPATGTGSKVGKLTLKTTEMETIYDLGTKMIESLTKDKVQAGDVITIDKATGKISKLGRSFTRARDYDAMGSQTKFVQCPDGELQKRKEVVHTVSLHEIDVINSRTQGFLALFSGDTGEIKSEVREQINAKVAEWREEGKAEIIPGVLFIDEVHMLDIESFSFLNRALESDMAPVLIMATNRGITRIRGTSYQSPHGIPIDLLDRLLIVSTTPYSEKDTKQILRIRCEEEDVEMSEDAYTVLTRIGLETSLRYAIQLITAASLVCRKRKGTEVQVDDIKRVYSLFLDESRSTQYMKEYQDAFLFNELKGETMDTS

SMILES: Nc1ncnc2c1ncn2[C@@H]1O[C@H](CO)C[C@H]1O [Cordycepin, 3′-deoxy-adenosine]
- Kd (Ruvbl2): ~0.5 µM
- clock phase of liver slice versus DMSO (liver culture slice): totally antiphase
- concentration of eliciting 12 h phase shift (potency) ([1]; pentostatin containing medium (5 μg/ml)): 0.2 µM
- concentration of eliciting 12 h phase shift (potency) ([1]; pentostatin containing medium (5 μg/ml), listed as cordycepin): 0.18 µM
- concentration of eliciting 12 h phase shift (potency) ([1]; without pentostatin): 25 µM
